In patent publication US10206398B2, “Five-membered C-N-attached aryl sulphide and aryl sulphoxide derivatives as pesticides” (BAYER CROPSCIENCE AKTIENGESELLSCHAFT, priority 2014, dated 2019):
Like-named read-outs stand apart in the source and are kept apart here.

What was measured:
[1] = log P determination by HPLC on reversed-phase columns (C 18), analogous to OECD Guideline 117; type: physicochemical; conditions: for logP[a]: method [a]; for logP[b]: method [b]; for chromatographic logP: reversed-phase HPLC column (C 18)
Experimental: The log P values were determined analogously to OECD Guideline 117 (EC Directive 92/69/EEC) by HPLC (high-performance liquid chromatography) using reversed-phase columns (C 18), by the following methods: [a] The LC-MS determination in the acidic range was effected at pH 2.7 with 0.1% aqueous formic acid and acetonitrile (contains 0.1% formic acid) as eluents; linear gradient from 10% acetonitrile to 95% acetonitrile. log P[a] is also referred to as log P(HCOOH). [b] LC-MS determination in the neutral range was effected at pH 7.8 with 0.001 molar aqueous ammonium hydrogencarbonate solution and acetonitrile as eluents; linear gradient from 10% acetonitrile to 95% acetonitrile. log P[b] is also referred to as log P(neutral). Calibration is effected with solutions of a homologous series of unbranched alkan-2-ones (having 3 to 16 carbon atoms) with known log P values (log P values determined on the basis of the retention times by linear interpolation between two successive alkanones).

Tetranychus urticae = Tetranychus urticae - spray test, OP-resistant (bean leaf discs, 6 days); type: in vivo; conditions: after 6 days
Experimental: 5. Tetranychus urticae—Spray Test, OP-Resistant
Solvent: 78.0 parts by weight of acetone
• 1.5 parts by weight of dimethylformamide Emulsifier: alkylaryl polyglycol ether
To produce a suitable preparation of active compound, 1 part by weight of active compound is dissolved using the stated parts by weight of solvent and made up with water containing an emulsifier concentration of 1000 ppm until the desired concentration is attained. To produce further test concentrations, the preparation is diluted with emulsifier-containing water.
Discs of bean leaves (Phaseolus vulgaris) infested with all stages of the greenhouse red spider mite (Tetranychus urticae) are sprayed with an active compound preparation of the desired concentration.
After 6 days, the efficacy in % is determined. 100% means that all the spider mites have been killed; 0% means that no spider mites have been killed.

[2] = pH 2.7, HPLC, acidic range, pH 2.7, 0.1% aqueous formic acid and acetonitrile, read-out: log P(HCOOH)
[3] = pH 7.8, HPLC, neutral range, pH 7.8, 0.001 molar aqueous ammonium hydrogencarbonate and acetonitrile, read-out: log P(neutral)
[4] = pH 2.7, Table 3, HPLC, acidic range, pH 2.7, read-out: logP[a]
[5] = pH 7.8, Table 3, HPLC, neutral range, pH 7.8, read-out: logP[b]

SMILES	logP[a] [1]	logP[b] [1]	efficacy (spider mites killed) (Tetranychus urticae; 500 g/ha)	also measured
Cc1cc(F)c(N2C(=O)C(C)N(C(=O)NCc3ccccc3)C2=O)cc1[S+]([O-])CC(F)(F)F (mixture of isomers) [compound 90]	3.12	3.05	100%	
Cc1cc(Cl)c(N2C(=O)CN(C(=O)NCC(C)C)C2=O)cc1[S+]([O-])CC(F)(F)F (racemic) [compound 65]	2.95	2.88		efficacy (spider mites killed) (Tetranychus urticae; 100 g/ha): 90%
Cc1cc(F)c(N2C(=O)CN(C(=O)NCC3CCCO3)C2=O)cc1SCC(F)(F)F (racemic) [compound 67]	2.99	2.98	100%	
Cc1cc(C)c([S+]([O-])CC(F)(F)F)cc1N1C(=O)CN(C(=O)Nc2cccc(Cl)c2)C1=O (racemic) [compound 69]	3.37	3.33		efficacy (spider mites killed) (Tetranychus urticae; 100 g/ha): 90%
Cc1cc(Cl)c(N2C(=O)CN(C(=O)NCc3ccccc3)C2=O)cc1[S+]([O-])CC(F)(F)F (racemic) [compound 70]	2.95	2.91	100%	
Cc1cc(F)c(N2C(=O)C(C)N(C(=O)NCC(C)C)C2=O)cc1SCC(F)(F)F (racemic) [compound 80]	3.99	3.98	100%	
Cc1cc(F)c(N2C(=O)C(C)N(C(=O)NCc3ccccc3)C2=O)cc1SCC(F)(F)F (racemic) [compound 81]	3.94	3.91	100%	
COCCNC(=O)N1CC(=O)N(c2cc([S+]([O-])CC(F)(F)F)c(C)cc2F)C1=O (racemic) [compound 82]	1.97	1.94	100%	
CCNC(=O)N1C(=O)N(c2cc([S+]([O-])CC(F)(F)F)c(C)cc2F)C(=O)C1(C)C (racemic) [compound 83]	2.73	2.70	90%	
Cc1cc(F)c(N2C(=O)N(C(=O)NCC(F)(F)F)C(C)(C)C2=O)cc1[S+]([O-])CC(F)(F)F (racemic) [compound 85]	3.07	3.05	100%	
Cc1cc(F)c(N2C(=O)N(C(=O)NCC(C)C)C(C)(C)C2=O)cc1[S+]([O-])CC(F)(F)F (racemic) [compound 86]	3.41	3.39	100%	
Cc1cc(F)c(N2C(=O)N(C(=O)NCc3ccccc3)C(C)(C)C2=O)cc1[S+]([O-])CC(F)(F)F (racemic) [compound 87]	3.48	3.38	100%	
Cc1cc(C)c([S+]([O-])CC(F)(F)F)cc1N1C(=O)CN(C(=O)Nc2cccc(CC(F)(F)F)c2)C1=O (racemic) [compound 97]	3.57	3.47	90%	
Cc1cc(C)c([S+]([O-])CC(F)(F)F)cc1N1C(=O)CN(C(=O)NCc2ccccc2)C1=O (racemic) [compound 98]	2.85	2.77	90%	
Cc1cc(Cl)c(N2C(=O)CN(C(=O)Nc3ccc(F)cc3)C2=O)cc1[S+]([O-])CC(F)(F)F (racemic) [compound 100]	3.17	3.09	100%	
CCNC(=O)N1CC(=O)N(c2cc([S+]([O-])CC(F)(F)F)c(Cl)cc2Cl)C1=O (racemic) [compound 111]	2.56	2.59	100%	
O=C(NC1CC1)N1CC(=O)N(c2cc([S+]([O-])CC(F)(F)F)c(Cl)cc2Cl)C1=O (racemic) [compound 112]	2.61	2.65	100%	
CC(C)CNC(=O)N1CC(=O)N(c2cc([S+]([O-])CC(F)(F)F)c(Cl)cc2Cl)C1=O (racemic) [compound 113]	3.21	3.28	100%	
O=C(NCC(F)(F)F)N1CC(=O)N(c2cc([S+]([O-])CC(F)(F)F)c(Cl)cc2Cl)C1=O (racemic) [compound 114]	2.88	2.91	100%	
O=C(NCc1ccccc1)N1CC(=O)N(c2cc([S+]([O-])CC(F)(F)F)c(Cl)cc2Cl)C1=O (racemic) [compound 115]	3.23	3.29	100%	

SMILES	logP[a] [1]	logP[b] [1]	efficacy (spider mites killed) (Tetranychus urticae; 500 g/ha)	also measured
O=C(Nc1ccc(F)cc1)N1CC(=O)N(c2cc([S+]([O-])CC(F)(F)F)c(Cl)cc2Cl)C1=O (racemic) [compound 116]	3.39	3.46	100%	
Cc1cc(Cl)c(N2C(=O)CN(C(=O)Nc3ccccn3)C2=O)cc1[S+]([O-])CC(F)(F)F (racemic) [compound 119]	2.65	2.65		
Cc1cc(F)c(N2C(=O)CN(C(=O)NCC(F)(F)F)C2=O)cc1[S+]([O-])CC(F)(F)F (single isomer, unassigned) [Ex. No. 135]	2.4	2.44		
Cc1cc(F)c(N2C(=O)CN(C(=O)NC3CC3)C2=S)cc1SCC(F)(F)F [Ex. No. 2, N-Cyclopropyl-3-[2-fluoro-4-methyl-5-(2,2,2-trifluoroethylsulphanyl)phenyl]-4-oxo-2-thioxoimidazolidine-1-carboxamide]				chromatographic logP [1, 2]: 3.66; chromatographic logP ([1]; pH 2.7, method [a], read-out: logP[a]): 3.66; chromatographic logP [1, 3]: 3.56; chromatographic logP ([1]; pH 7.8, method [b], read-out: logP[b]): 3.56
CCNC(=O)N1CC(=O)N(c2cc(SCC(F)(F)F)c(C)cc2F)C1=S [Ex. No. 8]	3.91	3.86		
Cc1cc(F)c(N2C(=O)NC(C)C2=O)cc1SCC(F)(F)F (stereo not drawn) [IIa-3, 3-[2-Fluoro-4-methyl-5-(2,2,2-trifluoroethylsulphanyl)phenyl]-5-methylimidazolidine-2,4-dione]				chromatographic logP [1, 2]: 2.34; chromatographic logP [1, 4]: 2.34; chromatographic logP [1, 3]: 2.31; chromatographic logP [1, 5]: 2.31
Cc1cc(F)c(N2C(=O)NC(C)(C)C2=O)cc1SCC(F)(F)F [IIa-5, 3-[2-Fluoro-4-methyl-5-(2,2,2-trifluoroethylsulphanyl)phenyl]-5,5-dimethylimidazolidine-2,4-dione]				chromatographic logP [1, 2]: 2.61; chromatographic logP [1, 4]: 2.61; chromatographic logP [1, 3]: 2.53; chromatographic logP [1, 5]: 2.53
Cc1cc(F)c(N2C(=O)CN(C(=O)NC(C)C)C2=S)cc1SCC(F)(F)F [compound 5]	3.98	3.87		
Cc1cc(F)c(N2C(=O)CN(C(=O)NCC(C)C)C2=S)cc1SCC(F)(F)F [compound 11]	4.27	4.18		
Cc1cc(F)c(N2C(=O)CN(C(=O)Nc3cccnc3)C2=O)cc1SCC(F)(F)F [compound 17]	2.37	2.75		
Cc1cc(C)c([S+]([O-])CC(F)(F)F)cc1N1C(=O)CN(C(=O)NCC(C)C)C1=O (stereo not drawn) [compound 35]	2.77	2.76		
Cc1cc(C)c(N2C(=O)CN(C(=O)Nc3cccc(Cl)c3)C2=O)cc1SCC(F)(F)F [compound 56]	4.32	4.19		
CCNC(=O)N1C(=O)N(c2cc(SCC(F)(F)F)c(C)cc2F)C(=O)C1(C)C [compound 73]	3.72	3.70		
Cc1cc(F)c(N2C(=O)N(C(=O)NCC(F)(F)F)C(C)(C)C2=O)cc1SCC(F)(F)F [compound 75]	4.02	3.95		
Cc1cc(C)c(N2C(=O)CN(C(=O)Nc3ccc(F)cc3)C2=O)cc1SCC(F)(F)F [compound 93]	3.95	3.86		
Cc1cc(C)c(N2C(=O)CN(C(=O)Nc3ccccn3)C2=O)cc1SCC(F)(F)F [compound 95]	3.47	3.42		
Cc1cc(Cl)c(N2C(=O)CN(C(=O)Nc3ccccn3)C2=O)cc1SCC(F)(F)F [compound 96]	3.55	3.51		
O=C(NCc1ccccc1)N1CC(=O)N(c2cc(SCC(F)(F)F)c(Cl)cc2Cl)C1=O [compound 107]	3.86	3.90		
Cc1cc(F)c(N2C(=O)CN(C(=O)N(C)CC(C)C)C2=O)cc1SCC(F)(F)F [compound 124]	3.53	3.59		
